The record followed here is patent publication US12263172B2, “Toll-like receptor agonists for use in the treatment of hepatitis b” (priority 2019, dated 2025).

Series [1] has as its target T1, monkey TLR7 (Macaca fascicularis, UniProt B3Y652).
T1 sequence (B3Y652 1-1049): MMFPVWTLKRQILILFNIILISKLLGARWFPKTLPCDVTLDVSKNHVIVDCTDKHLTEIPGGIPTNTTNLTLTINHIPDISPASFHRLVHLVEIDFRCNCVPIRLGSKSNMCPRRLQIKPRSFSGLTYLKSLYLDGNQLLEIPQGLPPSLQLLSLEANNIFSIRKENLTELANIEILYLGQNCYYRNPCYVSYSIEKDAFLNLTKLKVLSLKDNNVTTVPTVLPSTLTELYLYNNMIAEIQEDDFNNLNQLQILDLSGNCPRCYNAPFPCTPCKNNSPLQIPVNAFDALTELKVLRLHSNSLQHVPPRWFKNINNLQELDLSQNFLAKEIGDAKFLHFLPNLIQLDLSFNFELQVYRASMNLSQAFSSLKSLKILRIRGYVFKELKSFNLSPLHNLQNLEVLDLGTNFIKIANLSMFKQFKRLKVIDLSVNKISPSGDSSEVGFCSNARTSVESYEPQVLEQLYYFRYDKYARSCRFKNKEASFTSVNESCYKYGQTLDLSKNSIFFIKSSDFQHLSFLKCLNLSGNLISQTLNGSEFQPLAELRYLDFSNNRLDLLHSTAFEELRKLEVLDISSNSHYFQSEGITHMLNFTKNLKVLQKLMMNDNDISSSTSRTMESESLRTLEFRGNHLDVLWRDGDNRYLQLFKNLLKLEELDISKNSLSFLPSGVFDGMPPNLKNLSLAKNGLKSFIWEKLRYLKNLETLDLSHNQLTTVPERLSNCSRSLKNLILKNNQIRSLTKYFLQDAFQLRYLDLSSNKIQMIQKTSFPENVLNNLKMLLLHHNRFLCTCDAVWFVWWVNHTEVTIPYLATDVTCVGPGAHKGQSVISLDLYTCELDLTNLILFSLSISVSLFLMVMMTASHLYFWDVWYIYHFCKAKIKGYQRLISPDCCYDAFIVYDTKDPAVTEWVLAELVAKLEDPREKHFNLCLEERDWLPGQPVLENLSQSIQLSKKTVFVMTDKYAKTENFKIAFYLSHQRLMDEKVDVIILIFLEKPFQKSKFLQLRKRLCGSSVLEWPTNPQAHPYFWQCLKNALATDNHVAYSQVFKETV
The series can be described thus: activation of monkey TLR7 (LEC). The format is cell-based. From the text: (§1) Exposure increased more than dose-proportionally at low doses. Variability in exposure was high. • In vitro plasma protein binding was between 79.6% and 94.2% in animals and humans. Volume of distribution after intravenous dosing was high. […] Main metabolic pathways were oxygenation, hydrogenation, dehydrogenation, dealkylation, acetylation, glucuronidation, and/or glutathione conjugation. • In rats, >80% of drug-related material was found in feces, 11% to 20% in bile, and <4% in urine. […] There were no effects on embryofetal development up to 1 mg/kg/dose in rats and 30 mg/kg/dose in rabbits.

The subject of series [2] is interferon-stimulated genes (ISGs) and cytokines in peripheral blood. Description: single oral administration in monkeys: tolerability, ISG and cytokine induction. The format is in vivo.
Excerpt: as §1

Series [3] can be described thus: genotoxic potential.
Excerpt: as §1

Series [4] can be described thus: cardiovascular safety pharmacology in monkeys. Conditions: secondary to an increase in body temperature. The format is in vivo.
Excerpt: as §1

Series [5] in a line: 6-month toxicity study in rats. Conditions: rat, in vivo.
Excerpt: as §1

A short description of series [6]: 14- and 28-day toxicity study in monkeys. The format is in vivo. As to conditions: 3, 15, and 100 mg/kg biw.
Excerpt: as §1

The test system of series [7] is cytokines and ISGs (ISG15, MX1, OAS1). The series can be described thus: Phase 1 multiple dose pharmacodynamics in healthy adults. The format is in vivo, human. As to conditions: 1.25 mg qw. As for the experimental part:
Serum levels of IFN-α were measured by ELISA. Serum levels of IP-10, IFN-γ, TNF-α, IL-12 (subunit P40), IL-6, IL-1β, IL-1RA, IL-18, MCP-1, MIP-1β, G-CSF, GM-CSF, IL-10, IL-15 were measured by Luminex xMAP technology. The LLOQ for IFN-α was determined at 12.5 pg/mL and at 25 pg/mL for all other cytokines measured. Fold changes for each of the cytokines were calculated compared to predose values or LLOQ-1 values if predose values were below LLOQ.
IFN-stimulated gene (ISG) expression analysis was conducted for 3 genes, ISG15, MX1, and OAS1, using quantitative polymerase chain reaction (qPCR) on collected whole blood samples. For the ISGs, relative fold changes from baseline were calculated according to the delta delta Cycle threshold (Ct) method (2^[Delta Delta Ct]). Assessments were done for Part 1 predose and postdose: 1.5 hours, 6 hours, 12 hours (Day 1), 24 hours (day 2), 48 hours (Day 3), 96 hours (Day 5), follow-up Week 2. For the Part 2, assessments were done predose and post the first and fourth dose: 2 hours, 4 hours, 12 hours, 24 hours, 48 hours, 96 hours and one week follow-up; and post the second and third doses: 12 hours and 48 hours.

Where [8] appears, read: 12 hours after the second administration.

With `CCCCOc1nc(N)c2[nH]cc(Cc3ccc(CN4CCCC4)cc3)c2n1` [Compound 4], the “lowest effective concentration (LEC) for activation of monkey TLR7” value in series [1] is under 119 nM. In addition, the “cytokine induction (IFN-α, IP-10, IL-1 RA, MCP-1)” value in series [2] (0.6 mg/kg) is listed as “induction of 4 of the 14 cytokines tested”. In series [2] (0.1 and 0.15 mg/kg), the cytokine induction result is “only increases in IP-10 were detected”. In addition, the “ISG15, MX1 and OAS1 in peripheral blood” value in series [2] (each dose, 12-24 hours postdose) is “increase in all 3 major interferon-stimulated genes”. Besides, in series [2] (monkey, in vivo), the “dose for which the LEC was observed (minimal target engagement)” value was determined as 0.1 mg/kg. Besides, the tolerability entry in series [2] (single oral 0.05, 0.1, 0.15 and 0.6 mg/kg) is recorded as “well tolerated”. Also, the genotoxic potential result in series [3] is “free of genotoxic potential”. Also, in series [4], the “heart rate and arterial blood pressure” value was “transient increase in heart rate and arterial blood pressure”. For the same compound, the AUC(0-t) in series [5] (1.0 mg/kg qw or q2w, read-out: AUC24h at NOAEL) was in the range of 16.6 to 27.3 ng·h/mL. Also, the Cmax in series [5] (1.0 mg/kg qw or q2w, read-out: Cmax at NOAEL) lay in the range of 3.32 to 7.88 ng/mL. This compound had an NOAEL at 6 months in series [5] (qw or q2w, 6 months) of 1 mg/kg. In addition, the brain inflammation result in series [6] is recorded as “Brain inflammation occurred”. Besides, in series [7], the “IFN-α or IP-10 levels before the subsequent dose” value is given as “values returned to baseline before administration of the subsequent dose” and the “PD responses after the last dose compared to the first dose” value is recorded as “No enhanced induction of PD responses as well as no evidence for tachyphylaxis”. Further, in series [7] (setting [8]), the “fold increase of IFN-α in the subject with cotton wool spots” value was determined as 8.4 fold and the “maximum IFN-α level in the subject with cotton wool spots” value worked out at 97 pg/mL.

The term Cmax denotes the maximum level reached in the sampled fluid or tissue. What is called NOAEL is the highest tested level that showed no adverse finding.
